Values of other authors as cited in US20030181473A1, “Farnesyl protein transferase inhibitor combinations with taxane compounds” (priority 2000, published 2003).

Experiments:
human tumor cells = details: combination of paclitaxel and the farnesyl transferase inhibitor, in vitro
colon cancer (LoVo) = details: combination of paclitaxel and the farnesyl transferase inhibitor; mouse colon cancer (LoVo) model

Cn1cncc1C(N)(c1ccc(Cl)cc1)c1ccc2c(c1)c(-c1cccc(Cl)c1)cc(=O)n2C (single isomer, unassigned; (+)) [(+)-6-[amino(4-chlorophenyl)(1-methyl-1H-imidazol-5-yl)methyl]-4-(3-chlorophenyl)-1-methyl-2(1H)-quinolinone]
anti-tumor effect of the combination (human tumor cells): additive anti-tumor effect
anti-tumor effect of the combination (colon cancer (LoVo)): additive anti-tumor effect
